Experimental data as given in US11427553B2, “Dihydrooxadiazinones” (Bayer Aktiengesellschaft, priority 2017, dated 2022).

Experiments:
Type in all cases: cell-based
[1] = test system: NCI-H1734 cells; assay: Assay 1 cell proliferation measurement, NCI-H1734; settings: Homo sapiens, Lung, read-out: Anti-proliferation IC50 [nM] NCI-H1734
[2] = test system: H4 cells; assay: Assay 1 cell proliferation measurement, H4; settings: Homo sapiens; Astrocytoma; read-out: Anti-proliferation IC50 [nM] H4
[3] = test system: COLO741 cells; assay: Assay 1 cell proliferation measurement, COLO741; settings: Homo sapiens, COLO-741; Melanoma; read-out: Anti-proliferation IC50 [nM] COLO741
[4] = test system: DU145 cells; assay: Assay 2 cell proliferation measurement, DU145; settings: Homo sapiens, DU-145, Prostate NS, read-out: Anti-proliferation IC50 [nM] DU145
Experimental: (§1) Cell Proliferation Measurement
(§2) The antiproliferative activity of the compounds of the general formula (I) was examined in vitro in human cancer cells. For this purpose, 500 cells, including HeLa cells, A2058 cells, DU145 cells, HMCB cells, IGR37 cells, NCIH1734 cells, OSRC2 cells, or 750 cells, including CAL51 cells, COL0741 cells, DBTRG05MG cells, DKMG cells, G292CLONEA141B1 cells, GB1 cells, HEL cells, HEL9217 cells, JHUEM1 cells, L3.3 cells, LI7 cells, TE4 cells, or 1000 cells, including 8505C cells, HUT78 cells, NCIH1563 cells, NCIH2122 cells, NCIH2172 cells, RVH421 cells, SKMEL3 cells, or 1500 cells, including C32 cells, HS578T cells, JHOM1 cells, NCIH196 cells, OVKATE cells, were plated in 384-well plates with appropriate growth medium and incubated at 37° C. overnight. […] After 72 h, the cells were treated with 20 μl/well of 50% CTG solution in PBS (Promega Cell Titer Glo (catalogue #G755B and G756B)) and incubated at room temperature for 10 min, and luminescence was measured by means of a VICTOR V (Perkin Elmer), in order to determine cell viability at the end of treatment. The percentage effect on cell growth and the IC50 derived therefrom were determined for each test substance using the values from untreated wells (=percent viability). The IC50 values were calculated using a 4-parameter fit.

[5] = test system: CAL51 cells; assay: Assay 2 cell proliferation measurement, CAL51; settings: Homo sapiens, CAL-51, Breast NS, read-out: Anti-proliferation IC50 [nM] CAL51
Experimental: as §1, §2

[6] = test system: NCIH2122 cells; assay: Assay 2 cell proliferation measurement, NCIH2122; settings: Homo sapiens, NCI-H2122, Lung adenocarcinoma, read-out: Anti-proliferation IC50 [nM] NCIH2122
Experimental: as §1, §2

Q: Which IC50 [1] does the source give for `O=C1NN=C(c2ccc(-c3ccc(F)cc3)c(C(F)(F)F)c2)CO1` [Example 3, 5-[4′-Fluoro-2-(trifluoromethyl)biphenyl-4-yl]-3,6-dihydro-2H-1,3,4-oxadiazin-2-one] here?
A: 13 nM

Q: What about the IC50 [2] of the same compound?
A: 25 nM

Q: `C[C@@H]1OC(=O)NN=C1c1ccc(-c2ccc(F)cc2)c(C(F)(F)F)c1` [Example 135, (6S)-5-[4′-Fluoro-2-(trifluoromethyl)biphenyl-4-yl]-6-methyl-3,6-dihydro-2H-1,3,4-oxadiazin-2-one] was tested. Which IC50 [3] did it give?
A: 1 nM

Q: Which IC50 [4] does the source give for `O=C1NN=C(c2ccc(-c3cnn(C(F)F)c3)c(C(F)(F)F)c2)CO1` [Example 146, 5-{4-[1-(Difluoromethyl)-1H-pyrazol-4-yl]-3-(trifluoromethyl)phenyl}-3,6-dihydro-2H-1,3,4-oxadiazin-2-one] here?
A: 14 nM

Q: And the IC50 [5]?
A: 37 nM

Q: What about the IC50 [6] of the same compound?
A: 3 nM
